Experimental data reported in PMC11372839, “Unraveling the Potential of Vitamin B3-Derived Salts with a Salicylate Anion as Dermal Active Agents for Acne Treatment” (Molecular Pharmaceutics, 2024).
≈ marks a conversion by molar mass, not a printed value. Where “and” joins values, the source holds several entries; their conditions need not be identical. Equal values may be shown once. Read-outs that look alike come from different tables or passages of the source.

Key:
Artemia franciscana = assay: Ecotoxicity toward aquatic life, Artoxkit M immobilization test; format: in vivo; conditions: for EC50: Artemia franciscana; for Class: acute toxicity rating scale by Fish and Wildlife Service
Method: To determine the EC50 parameter for compounds, tests were carried out on marine crustaceans—Artemia franciscana (A. franciscana). The methodology proposed in the Artoxkit M test (MicroBioTests Inc., Gent, Belgium) was developed according to the ASTM E1440-91 standard.
The hatching process was started first. For this purpose, 50 mg of cysts was transferred to the Petri dishes attached to the Artoxkit M set, which were then immersed in 10 mL of artificial seawater with a salinity of 35‰ (a medium for the development of the tested organisms, as well as a solvent for preparing solutions of the tested compounds) and placed at a temperature of 25 °C, with access to light (6000–10,000 lux) for 30 h. Then, 2 h before placing them on the Artoxkit M plates, 20 mg of spirulina was added to cultured artemias. In addition, 1 h before the analysis, the used seawater was oxygenated by passing a stream of air through the solution. To each of the four cells in a given row of a plate from the Artoxkit M kit, 1 mL of solution at the specified concentrations (or the appropriate medium in the case of a control) were introduced. In the first column of cells (a control sample and five selected concentrations), no less than 30 artemias were placed from previously prepared Petri dishes. Then, from the first cell in the first column, artemias were collected at the selected concentration and added to the next three cells in the selected row, 10 organisms per cell. After the organisms were introduced into the appropriate cells, the plates were covered with Parafilm and then closed with a plastic cap. The prepared kit was incubated at 25 °C and protected from light. Number of motionless organisms were counted after 24 and 48 h. Immobilization was then calculated (eq 1) in relation to the number of organisms at the start of the test: [drawing 1] 1
Next, the dependence between the effect and concentration of the tested compounds was plotted, and on this basis, an EC50 value was determined.

[1] = Octanol–water partition coefficient, shake-flask method (OECD Test No. 107); format: physicochemical
Method: The octanol–water partition coefficients (KOW) of the synthesized products were estimated by the shake-flask method according to the OECD Test No. 107 guidelines (Partition Coefficient n-Octanol/Water: Shake-Flask Method). Measurements were performed using mutually saturated distilled water and 1-octanol in a glass vial containing a magnetic stir bar. First, the synthesized products were dissolved in distilled water (or 1-octanol) at a chosen concentration (0.01 mol per 1 L of octanol or water), and then proper amounts of the second solvent (octanol or water) were added. Subsequently, two duplicate runs were carried out with different solvent ratios: 4 mL of 1-octanol and 2 mL of water (2:1), 4 mL of 1-octanol and 4 mL of water (1:1), and 4 mL of 1-octanol and 8 mL of water ([…]). All vials were shaken at a constant temperature of 25 °C. After 24 h, all samples were centrifuged and the aqueous and octanolic phases were collected with a syringe. The concentrations of compounds in water were determined spectrophotometrically using a Rayleigh UV-1601 spectrophotometer (Beijing Beifen-Ruili Analytical, China) based on calibration curves made previously (at λmax = 262 nm) vs concentration for each substance. Two repetitions of each measurement were performed in a specific solvent ratio (1:1, 1:2, and 2:1). Finally, the log KOW was calculated as the average of six results collected for each compound.
The outermost layer of the skin (stratum corneum) contains around […] water, a relatively low amount compared to the rest of the human body. Given the hydrophobic nature of 1-octanol, it can be used as a simplified model for the stratum corneum.[50] The octanol–water partition coefficient (KOW) value represents the proportion between the concentrations of a substance in both liquid phases of a system composed of water and 1-octanol. […] The log KOW values are given in Figure 6 (exact values are provided in Table S4, Supporting Information).

[2] = Contact angle of aqueous solutions, sessile drop method on paraffin; format: physicochemical; conditions: aqueous solution, 25 °C
Method: The contact angle (CA) measurements were carried out using a DSA100S analyzer (Krüss, Germany, accuracy ±0.1°), at 25 °C. The determination of the contact angle was based on the sessile drop method, i.e., drops of the analyzed solution were deposited on a solid surface (paraffin). The images of the drops were taken with a CCD camera, digitized, and evaluated using Young–Laplace fitting. The CA was determined as the slope of the tangent line at the contact point between the 3 phases (solution, paraffin surface, and air).
In the case of seborrheic skin, which occurs among many people affected by acne, the epidermis is covered by a hydrophobic lipid layer, which impedes the penetration of active substances, especially those that are well soluble in water. In addition, ensuring proper drug absorption through the skin can also reduce the risk of side effects and increase the effectiveness of therapy.[72] The addition of surfactants, which improve the wettability of hydrophobic surfaces, can be a solution to this problem.[73],[74] […] Wettability analyses of aqueous solutions of the new APIs were carried out on paraffin, whose hydrophobicity is similar to that of the human skin.[75] Experiments were performed at concentrations corresponding to common NA and SAL contents in commercial formulations (0.25–1.00%).[67],[76],[77] Due to low solubilities of 5–7, tests for these salts were performed at concentrations of 0.25, 0.03, and 0.01%, respectively (please see Figure S43 in the Supporting Information).

Solubility in PBS = conditions: for Solubility in PBS, Class: Pharmacopeia solubility class, PBS pH 7.4, 25 °C
Method: The solubility in PBS solution was determined by placing 1 g (±0.0001) of tested compound in a round-bottom flask and adding specific parts of the PBS solution in portions until full dissolution. The samples were vigorously stirred for at least 5 min before the addition of the next portion of PBS, and the systems were thermostated at 25 °C. Three repetitions of the measurement were performed for each of the compounds.
Most studies on the solubility of novel APIs are carried out with pure water, aqueous PBS solutions were much more preferred due to their higher similarity to intra- and intercellular media in epidermis, while envisaging their use in transdermal delivery and skin care applications.[60] […] The collected data are presented in Figure 8 (as well as in Table S6 in the Supporting Information).

[3] = immobilization, motionless organisms counted after 24 and 48 h, 25 °C, read-out: EC50
[4] = toxicity range of EC50, read-out: Range
[5] = shake-flask, 25 °C, 24 h, average of six results, read-out: Octanol-water partition coefficient (log Kow)
[6] = volume of PBS (pH 7.4) to dissolve 1 g, 25 °C

Row | SMILES | EC50 (Artemia franciscana; [3]) [µg/mL] | EC50 (Artemia franciscana; [4]) [µg/mL] | Class (Artemia franciscana) | logP at 24 h [1, 5] | Contact angle ([2]; concentration 0.25%) | Solubility in PBS, Class (Solubility in PBS) | Solubility in PBS, PBS [ml] (Solubility in PBS; [6]) [mL] | Contact angle ([2]; concentration 0.50%) [°] | Contact angle ([2]; concentration 1.00%) | logP at 24 h [1] | Solubility in PBS, PBS [ml] (Solubility in PBS; pH 7.4) [mL]
1 | CCCCCCCCCC[n+]1cccc(C(N)=O)c1.O=C([O-])c1ccccc1O [compound 5] | 138 | 100 to 1000 | Practically Nontoxic (100-1000) | 0.59 | 50.7 ° | Slightly Soluble (100-1000) | 100 to 1000 |  |  |  | 
2 | CCCCCCCC[n+]1cccc(C(N)=O)c1.O=C([O-])c1ccccc1O [compound 4] | 360 | 100 to 1000 | Practically Nontoxic (100-1000) | 0.07 | 94.1 ° and 94 ° | Soluble (10-30) | 10 to 30 | 79.0 | 61.2 ° and 61 ° |  | 
3 | O=C(O)c1ccccc1O [SAL, salicylic acid, reference compound] | 300 (≈ 2170 µM) | 100 to 1000 (≈ 724 to 7240 µM) | Practically Nontoxic (100-1000) |  | 104.9 ° |  |  |  |  | 1.82 | 100 to 1000
4 | CCCCCC[n+]1cccc(C(N)=O)c1.O=C([O-])c1ccccc1O [compound 3] | 692 | 100 to 1000 | Practically Nontoxic (100-1000) | -0.18 | 107.0 ° | Very Soluble (<1) | < 1 | 103.4 | 98.51 ° |  | 
